In US5494803A, “Immunodiagnostic assay using liposomes carrying labels thereof on outer liposome surface” (North Carolina State University, priority 1994, dated 1996):

Experiments:
[1] = target: anti-biotin antibody (ABA); assay: C^14-biotin adsorption to antibody-coated PMMA slides (radioimmunoassay isotherm, Langmuir fit); assay type: binding
Method: The adsorption of biotin to the antibody-coated PMMA surface was studied by exposing the surfaces to C^14 -labeled biotin, washing the slides, and determining the amount of radioactivity remaining on the solid support at different initial concentrations of biotin in the bulk solution. Four PMMA slides (1.5 cm×1.5 cm) coated with antibody, as described above, were incubated in 10 ml of C^14 -biotin PBS solutions in the concentration range from 10^-8 to 10^-4 M. After a ninety minute exposure, the slides were dipped quickly in 200 ml of deionized water to remove unbound C^14 -biotin from the surface. The radioactivity of the slides was determined by scintillation counting. […] As a control, the non-specific adsorption of C^14 -biotin to PMMA alone and to BSA-covered PMMA was tested the same way, using a C^14 -biotin concentration of 10^-4 M.
The ability of the antibody-covered surface to bind biotin based on the results of radioimmunoassays is indicated by the isotherm shown in FIG. 3. The number of moles of biotin bound per unit area of surface is shown as a function of the initial concentration of biotin to which the surface was exposed. […] Assuming that each antibody molecule adsorbed to the surface can bind two biotin molecules, this corresponds to 0.88×10^-12 moles of active ABA/cm^2. […]
The quantity av is the ratio (A/V) which equals 1.88 cm^-1 in these experiments. […]

[2] = system: anti-biotin antibody (ABA)
Method: The adsorption of fluorescent biotin-conjugated liposomes and FITC-Biotin to the surface of the PMMA cuvettes was studied by measuring the amount of fluorescence remaining on the surface of the cuvette after exposure to a known concentration of fluorescent species and a washing step with PBS. One milliliter of solution containing fluorescent species was injected into the inlet of the cuvette 27 with a syringe, and the solution was allowed to stand in the cuvette for either half an hour or an hour, depending on the experiment. Unbound fluorescent molecules were then washed from the cuvette by pumping PBS with a peristaltic pump at a flow rate of 1 /min. After washing, the shutter 22 on the laser 21 was opened for a few seconds, until the digital reading on the photomultiplier tube counter 30 stabilized. This was recorded as the fluorescent signal in kilo-counts per second (KCPS) coming from the interface. […] This was done when it was necessary to investigate the role of the washing step in reducing the measured fluorescence signal. […]
The maximum signal obtained for adsorbed vesicles, at very high molar concentrations of liposomes, is approximately 1250 KCPS. The quantity λL is estimated by taking the measured fluorescence at a given set of concentrations, and dividing by the maximum signal value for full surface coverage.

Anti-Biotin Antibody = conditions: half-hour exposure, ten-minute PBS wash
Method: PMMA cuvettes were cleaned by sonication for twelve hours in RBS solution, followed by sonication in deionized water for twenty-four hours. The cuvettes were incubated in 0.2 ml of 40 μg/ml of anti-biotin antibody (ABA) solution in PBS for two hours at room temperature and rinsed with 0.4 ml PBS twice to remove unbound antibody. The cuvettes were then incubated in 0.2 ml of 3 weight % BSA solution in PBS as a blocking agent for one hour at room temperature, and rinsed twice with 0.4 ml of PBS. […]
A manual shutter 22 was attached to the laser so that essentially no light would reach the sample when the shutter was closed. […] The emitted fluorescence was detected by a photomultiplier tube 29 (Hamamatsu Co., Hamamatsu, Japan). A 520 nm filter 28 was placed on top of the tube so that only the emitted light from fluorescein would be measured. The output from the photomultiplier 29 was sent to a preamplifier, not shown, (Model C716, Hamamatsu) and recorded using a digital photon counter 30 (Model C1230, Hamamatsu). […]
The adsorption of fluorescent biotin-conjugated liposomes and FITC-Biotin to the surface of the PMMA cuvettes was studied by measuring the amount of fluorescence remaining on the surface of the cuvette after exposure to a known concentration of fluorescent species and a washing step with PBS. […]

| Compound | Kd ([1]; Langmuir isotherm best fit, PMMA coated with ABA, blocked with BSA, PBS, read-out: equilibrium binding constant K (KB) of biotin on adsorbed ABA (converted)) [nM] | saturation level of biotin bound per unit area of surface ([1]; biotin concentrations greater than 10^-4 M) | free biotin concentration at which the decrease in fluorescence commences (experimental) ([2]; liposomes 0.01 or 0.03 mg/ml) | free biotin concentration at which fluorescence should decrease significantly (simple Langmuir model) ([2]; predicted from KB and KL) | association constant of FITC-Biotin to ABA (in words) (Anti-Biotin Antibody) |
| --- | --- | --- | --- | --- | --- |
| O=C(O)CCCC[C@@H]1SC[C@@H]2NC(=O)N[C@@H]21 [biotin] | 400 | approximately 1.8×10^-12 moles of biotin/cm^2 | approximately 2×10^-5 M | approximately 4×10^-7 M |  |
| fluorescein isothiocyanate-biotin [FITC-Biotin] |  |  |  |  | very low association constant |
